Experimental data: patent publication US10021901B2, “Antimicrobial mixture of aldehydes, organic acids and fatty acid esters” (ANITOX CORPORATION, priority 2011, dated 2018)
≈ marks a conversion by molar mass, not a printed value. Like-named read-outs stand apart in the source and are kept apart here.

What was measured:
[1] = test system: Salmonella typhimurium (ATTC:14028); assay: Organic acid esters against Salmonella typhimurium in test tubes (Example 1); type: cell-based; settings: for killing at 0.01 % / killing at 0.05 %: Salmonella enterica, TYPHIMURIUM, read-out: Reduction (% Reduction) of Salmonella typhimurium in vitro
Description: Methyl and ethyl esters of organic acids were added to test tubes at concentrations of 0.01% and 0.05%. Tubes were vortexed for 10 seconds to uniformly mix the solution. A suspension of Salmonella typhimurium (ATTC:14028) was added to each test tube to achieve a final concentration of 10^4 cfu/ml. The solutions were vortexed, incubated at room temperature for 24 hours and plated on XLT-4 agar. Plates were incubated for 48 hours at 37° C. before enumerating colonies.

M. gypseum = settings: cited from earlier work
[2] = test system: yeast (10^5 CFU/bottle) in beverages; settings: cited from earlier work
[3] = test system: Helicobacter pylori and S. cholerasuis; settings: Kubo 1999; Kubo and Fujita 2001; cited from earlier work
[4] = test system: B. cereus, S. typhimurium, V. parahaemolyticus, L. monocytogenes, S. aureus and E. coli O157:H7; settings: cited from earlier work
P. syringae pathovars = settings: vapour; cited from earlier work
E. coli = settings: vapour; cited from earlier work
Phoma mycelium = settings: cited from earlier work
Penicillium expansum = settings: blue mold; cited from earlier work
[5] = test system: A. flavus, P. notatum, A. alternate, F. oxysporum, Cladosporium spp., B. subtilis and A. tumerfaciens; settings: cited from earlier work
[6] = test system: apricots, peaches and nectarines; settings: cited from earlier work
[7] = test system: Staphylococcus aureus, E. coli and Salmonella typhimurium; settings: cited from earlier work
[8] = Ethyl Ester, 0.01% Dilution, 24 hours room temperature, compared to control
[9] = Ethyl Ester, 0.05% Dilution, 24 hours room temperature, compared to control
[10] = Methyl Ester, 0.01% Dilution, 24 hours room temperature, compared to control
[11] = Methyl Ester, 0.05% Dilution, 24 hours room temperature, compared to control

In the case of `CCCCCCCCCCCCCC(=O)OCC`, the “Reduction (% Reduction) of Salmonella typhimurium in vitro” value (“Reduction (% Reduction)” below) [1, 8] is reported as 12% and the “Reduction (% Reduction)” value [1, 9] is reported as 8%.

For `CCCCCCCCCCCCCC(=O)OC`, the “Reduction (% Reduction)” value [1, 10] was 43% and the “Reduction (% Reduction)” value [1, 11] was 49%.

Molecule `CCOC(C)=O` [Acetic acid Ethyl Ester] has a killing at 0.01 % [1, 8] of 0% and a killing at 0.05 % [1, 9] of 0%.

Work on `COC(C)=O` [Acetic acid Methyl Ester] yielded a killing at 0.01 % [1, 10] of 0% and a killing at 0.05 % [1, 11] of 29%.

In the case of `CCOC(=O)c1ccccc1` [Benzoic acid Ethyl Ester, Ethyl benzoate], the killing at 0.01 % ([1]; 24 h) is reported as 100% and the killing at 0.05 % ([1]; 24 h) is reported as 100%.

Work on `COC(=O)c1ccccc1` [Benzoic acid Methyl Ester, Methyl benzoate] yielded a killing at 0.01 % ([1]; 24 h) of 34% and a killing at 0.05 % ([1]; 24 h) of 100%.

In the case of `CCCC(=O)OCC` [Butyric acid Ethyl Ester, Ethyl butyrate], the killing at 0.01 % [1, 8] is reported as 28% and the killing at 0.05 % [1, 9] is reported as 100%.

`CCCC(=O)OC` [Butyric acid Methyl Ester] showed a killing at 0.01 % ([1]; 24 h) of 0% and a killing at 0.05 % ([1]; 24 h) of 28%.

With `CCCCCCCCCC(=O)OCC` [Capric (decanoic) acid Ethyl Ester] the “Reduction (% Reduction)” value [1, 8] was 0% and the “Reduction (% Reduction)” value [1, 9] was 0%.

In the case of `CCCCCCCCCC(=O)OC` [Capric (decanoic) acid Methyl Ester], the “Reduction (% Reduction)” value [1, 10] is reported as 8% and the “Reduction (% Reduction)” value [1, 11] is reported as 0%.

`CCCCCC(=O)OCC` [Caproic (hexanoic) acid Ethyl Ester, Ethyl hexanoate] gave a killing at 0.01 % [1, 8] of 100% and a killing at 0.05 % [1, 9] of 100%.

Work on `CCCCCC(=O)OC` [Caproic (hexanoic) acid Methyl Ester, Methyl hexanoate] yielded a killing at 0.01 % [1, 10] of 99% and a killing at 0.05 % [1, 11] of 100%.

With `CCCCCCCC(=O)OCC` [Caprylic (octanoic) acid Ethyl Ester] the “Reduction (% Reduction)” value [1, 8] was 66% and the “Reduction (% Reduction)” value [1, 9] was 65%.

`CCCCCCCC(=O)OC` [Caprylic (octanoic) acid Methyl Ester, Methyl octanoate] showed a killing at 0.01 % [1, 10] of 94% and a killing at 0.05 % [1, 11] of 94%.

Molecule `COC=O` [Formic acid Methyl Ester] has a killing at 0.01 % [1, 10] of 0% and a killing at 0.05 % [1, 11] of 5%.

In the case of `CC(=O)OCCC(C)C` [Isoamyl acetate], the “Effectiveness against Salmonella in words” value ([1]; 0.01% and 0.05%) is reported as “bactericidal activity”, the killing at 0.01 % ([1]; isoamyl acetate itself, 0.01% Dilution, 24 hours) is reported as 44% and the killing at 0.05 % ([1]; isoamyl acetate itself, 0.05% Dilution, 24 hours) is reported as 100%.

In the case of `COC(=O)C(C)C` [Isobutyric acid Methyl Ester], the killing at 0.01 % [1, 10] is reported as 3% and the killing at 0.05 % [1, 11] is reported as 41%.

With `CCOC(=O)CC(C)C` [Isovaleric acid Ethyl Ester] the killing at 0.01 % [1, 8] was 61% and the killing at 0.05 % [1, 9] was 100%.

In the case of `CCCCCCCCCCCC(=O)OCC` [Lauric (dodecanoic) acid Ethyl Ester], the “Reduction (% Reduction)” value [1, 8] is reported as 0% and the “Reduction (% Reduction)” value [1, 9] is reported as 0%.

With `CCCCCCCCCCCC(=O)OC` [Lauric (dodecanoic) acid Methyl Ester, Methyl laurate] the killing at 0.01 % [1, 10] was 1% and the killing at 0.05 % [1, 11] was 0%.

For `CCOC(=O)CCC(C)=O` [Levulinic acid Ethyl Ester], the killing at 0.01 % [1, 8] was 0% and the killing at 0.05 % [1, 9] was 8%.

With `COC(=O)CCC(C)=O` [Levulinic acid Methyl Ester] the killing at 0.01 % [1, 10] was 0% and the killing at 0.05 % [1, 11] was 12%.

For `CCCCC/C=C\C/C=C\CCCCCCCC(=O)OCC` [Linoleic acid Ethyl Ester], the killing at 0.01 % [1, 8] was 0% and the killing at 0.05 % [1, 9] was 0%.

In the case of `CCCCC/C=C\C/C=C\CCCCCCCC(=O)OC` [Linoleic acid Methyl Ester, methyl linoleate], the killing at 0.01 % [1, 10] is reported as 14% and the killing at 0.05 % [1, 11] is reported as 0%.

Molecule `CCOC(=O)CC(=O)O` [Malonic acid Ethyl Ester] has a killing at 0.01 % [1, 8] of 36% and a killing at 0.05 % [1, 9] of 57%.

For `COC(=O)CC(=O)O` [Malonic acid Methyl Ester], the killing at 0.01 % [1, 10] was 13% and the killing at 0.05 % [1, 11] was 9%.

With `CCOC(=O)CC` [Propionic acid Ethyl Ester] the killing at 0.01 % [1, 8] was 0% and the killing at 0.05 % [1, 9] was 40%.

`CCC(=O)OC` [Propionic acid Methyl Ester] gave a killing at 0.01 % ([1]; 24 h) of 9% and a killing at 0.05 % ([1]; 24 h) of 19%.

`CCCCC(=O)OCC` [Valeric (pentanoic) acid Ethyl Ester, Ethyl pentanoate] gave a killing at 0.01 % ([1]; 24 h) of 93% and a killing at 0.05 % ([1]; 24 h) of 100%.

Molecule `CCCCC(=O)OC` [Valeric (pentanoic) acid Methyl Ester, Methyl pentanoate] has a killing at 0.01 % ([1]; 24 h) of 10% and a killing at 0.05 % ([1]; 24 h) of 100%.

For `CCCCCCCCCC(=O)O` [capric acid, reference compound], the “minimum inhibitory concentration (MIC)” value (M. gypseum; liquid media) is given as 75 µg/mL (≈ 435 µM) and the “minimum inhibitory concentration (MIC)” value (M. gypseum; solid media) is given as 20 µg/mL (≈ 116 µM).

In the case of `CC(C)=CCCC(C)=CC=O` [citral, reference compound], the “equivalent concentration for control of yeast” value ([2]; equivalent to 25 ppm trans-2-hexenal and thermal treatment) is given as 100-120 ppm.

In the case of `CCCCCCCCC(=O)O` [nonanoic acid], the “minimum inhibitory concentration (MIC)” value (M. gypseum; liquid media) is given as 50 µg/mL (≈ 316 µM) and the “minimum inhibitory concentration (MIC)” value (M. gypseum; solid media) is given as 40 µg/mL (≈ 253 µM).

For `CCC/C=C/C=O` [trans-2-hexenal], the minimum biocidal activity [3] is given as 800 µg/mL, the minimum inhibitory activity [3] is given as 400 µg/mL and the effective concentration [4] is given as 247 mg/L. For the same molecule, the “concentration that completely inhibited proliferation” value (P. syringae pathovars) was 570 μg/L of air, the “concentration that completely inhibited proliferation” value (E. coli) was 930 micrograms/L of air and the “concentration effective on inhibiting growth” value (Phoma mycelium) was 250 µg/mL. For the same molecule, the “concentration effective on controlling Penicillium expansum” value (Penicillium expansum) was 12.5 μl/l, the “concentration that completely inhibited growth” value [5] was 8 ng/l air and the “concentration necessary to control microorganisms” value ([2]; beverages not thermally treated) was 35 ppm. The “concentration for control of yeast” value ([2]; with thermal treatment (56° C. for 20 min), equivalent to citral) was 25 ppm, the phytotoxicity ([6]; apricots) was “not phytotoxic” and the phytotoxic concentration ([6]; peaches and nectarines) was 40 μl/l.

In the case of `CC/C=C/CC=O` [trans-3-hexenal], the “level effective in controlling bacteria” value [7] is listed as 3 to 30 µg/mL.
